This is an account of results in ChEMBL document CHEMBL3085750, “Discovery of 2-methylpyridine-based biaryl amides as γ-secretase modulators for the treatment of Alzheimer's disease” (Bioorg Med Chem Lett, 2013).

Chain of Cytochrome P450 2D6 (P10635 whole entry): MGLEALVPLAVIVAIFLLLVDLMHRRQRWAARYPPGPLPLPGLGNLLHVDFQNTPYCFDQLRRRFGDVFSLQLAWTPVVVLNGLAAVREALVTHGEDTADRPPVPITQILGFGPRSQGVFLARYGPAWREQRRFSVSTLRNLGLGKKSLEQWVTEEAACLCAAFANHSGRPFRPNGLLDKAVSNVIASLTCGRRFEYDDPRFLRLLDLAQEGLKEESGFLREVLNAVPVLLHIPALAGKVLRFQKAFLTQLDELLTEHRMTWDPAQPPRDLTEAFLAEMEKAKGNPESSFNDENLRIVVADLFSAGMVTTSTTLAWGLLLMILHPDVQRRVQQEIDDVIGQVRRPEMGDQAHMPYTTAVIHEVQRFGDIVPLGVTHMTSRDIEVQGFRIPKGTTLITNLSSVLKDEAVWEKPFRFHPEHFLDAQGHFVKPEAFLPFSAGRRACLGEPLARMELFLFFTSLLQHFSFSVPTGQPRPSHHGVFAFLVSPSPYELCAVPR

The target in the first data set is Cytochrome P450 3A4 (Homo sapiens, UniProt P08684). The data set is described as follows: Inhibition of CYP3A4 (unknown origin) after 5 mins. Type of data set: ADME.
Chain of Cytochrome P450 3A4 (P08684 whole entry): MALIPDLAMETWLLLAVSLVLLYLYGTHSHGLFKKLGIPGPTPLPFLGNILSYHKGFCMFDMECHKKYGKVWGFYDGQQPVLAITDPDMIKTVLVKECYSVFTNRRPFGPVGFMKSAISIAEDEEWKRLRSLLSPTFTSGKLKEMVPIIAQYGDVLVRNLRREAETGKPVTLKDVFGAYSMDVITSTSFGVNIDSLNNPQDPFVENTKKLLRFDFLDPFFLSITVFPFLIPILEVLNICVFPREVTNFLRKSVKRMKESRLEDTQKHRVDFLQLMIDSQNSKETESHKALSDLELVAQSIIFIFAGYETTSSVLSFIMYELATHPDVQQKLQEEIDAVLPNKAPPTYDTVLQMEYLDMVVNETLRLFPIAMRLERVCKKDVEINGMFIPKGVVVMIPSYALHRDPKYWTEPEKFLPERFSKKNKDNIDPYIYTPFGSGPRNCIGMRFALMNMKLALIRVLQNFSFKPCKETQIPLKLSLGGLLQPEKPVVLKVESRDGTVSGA
Details: not given
`O=S(=O)(Nc1ccc(-c2ncccn2)cc1)c1cc(Cl)cc(Cl)c1`: the IC50 is 16200 nM.

Another data set has as its target Cytochrome P450 2D6 (Homo sapiens, UniProt P10635). The experiment in a line: Inhibition of CYP2D6 (unknown origin) after 10 mins.
Details: not given
It counts as ADME.
Take `O=S(=O)(Nc1ccc(-c2ncccn2)cc1)c1cc(Cl)cc(Cl)c1`: the IC50 was more than 27000 nM.

The compound `O=S(=O)(Nc1ccc(-c2ccco2)cc1)c1cc(Cl)cc(Cl)c1` gave an IC50 of more than 27000 nM.

Tested on in another data set: not listed separately
The data set is described as follows: Metabolic stability in human liver microsomes at 1 uM after 30 mins. It counts as ADME. Particulars: read-out: Stability.
For the compound `O=S(=O)(Nc1ccc(-c2ncccn2)cc1)c1cc(Cl)cc(Cl)c1`, the microsomal CLint at 1 µM was more than 399 µL/min/mg.

`O=S(=O)(Nc1ccc(-c2ccco2)cc1)c1cc(Cl)cc(Cl)c1`: the microsomal CLint at 1 µM is more than 399 µL/min/mg.

Tested on in a further data set: not listed separately
The data set is described as follows: Metabolic stability in rat liver microsomes at 1 uM after 30 mins. Type of data set: ADME. Particulars: read-out: Stability.
For `O=S(=O)(Nc1ccc(-c2ncccn2)cc1)c1cc(Cl)cc(Cl)c1`, the microsomal CLint at 1 µM was more than 399 µL/min/mg.

Turning to `COc1cc(C(=O)NCCC(c2ccccc2)c2ccccc2)ccc1-n1cnc(C)c1`, the microsomal CLint at 1 µM was more than 399 µL/min/mg.

As for `O=S(=O)(Nc1ccc(-c2ccco2)cc1)c1cc(Cl)cc(Cl)c1`, the microsomal CLint at 1 µM is more than 399 µL/min/mg.

For a further data set, the target named is Gamma-secretase. The experiment in a line: Modulation of gamma-secretase in HEK293 cells expressing guinea pig Swedish mutant SFV-APP695sw assessed as inhibition of amyloid beta-42 production after 16 to 18 hrs by HTRF assay. It counts as cell-based, Homo sapiens.
Details: not given
Turning to `Cc1cc(-c2ccc(NC(=O)C(C)c3cccc(N4CCN(C)CC4)c3)cc2)ccn1` (centres undefined), the IC50 was more than 10000 nM.

Consider `O=S(=O)(Nc1ccc(-c2ncccn2)cc1)c1cc(Cl)cc(Cl)c1`, for which the IC50 is more than 10000 nM.

As for `Cc1cccc(C(C)C(=O)Nc2ccc(-c3ccnc(C)c3)cc2)c1` (centres undefined), the IC50 was found to be 540 nM.

Turning to `Cc1cc(-c2ccc(C(=O)NC(C)c3cc(C(F)(F)F)cc(C(F)(F)F)c3)cc2)ccn1` (centres undefined), the 50% inhibitory concentration (IC50) is more than 10000 nM.

On to `Cc1cc(-c2ccc(NC(=O)C(C)c3cccc(-c4cccnc4)c3)cc2)ccn1` (centres undefined), for which the IC50 worked out at 1290 nM.

`CNc1ccc(-c2cccc(C(C)C(=O)Nc3ccc(-c4ccnc(C)c4)cc3)c2)cn1` (centres undefined): the IC50 was 930 nM.

Consider `COc1cc(NC(=O)[C@H](C)c2cc(C(F)(F)F)cc(C(F)(F)F)c2)ccc1-c1ccnc(C)c1`, for which the IC50 came out at 500 nM.

As for `Cc1cc(-c2ccc(NC(=O)C(C)c3cccc(N4CCN(c5ccccc5)CC4)c3)cc2)ccn1` (centres undefined), the IC50 came to 160 nM.

Regarding `Cc1cc(-c2ccc(NC(=O)C(C)c3cccc(-c4cccc(C#N)c4)c3)cc2)ccn1` (centres undefined), the IC50 was determined as 220 nM.

On to `Cc1cc(-c2ccc(NC(=O)Cc3cc(C(F)(F)F)cc(C(F)(F)F)c3)nc2)ccn1`, for which the half-inhibitory concentration (IC50) is more than 10000 nM.

Take `COc1cc(NC(=O)Cc2cc(C(F)(F)F)cc(C(F)(F)F)c2)ccc1-n1cnc(C)c1`: the IC50 was 1450 nM.

Consider `CCC(C(=O)Nc1ccc(-c2ccnc(C)c2)cc1)c1cccc(C)c1` (centres undefined), for which the IC50 came to 1050 nM.

Regarding `Cc1cc(-c2ccc(NC(=O)Cc3cc(C(F)(F)F)cc(C(F)(F)F)c3)cn2)ccn1`, the IC50 amounted to 1350 nM.

On to `Cc1cc(-c2ccc(NC(=O)C(C)c3cccc(-c4cnc(N5CCOCC5)nc4)c3)cc2)ccn1` (centres undefined), for which the IC50 is 650 nM.

Regarding `Cc1cc(-c2ccc(NC(=O)C(C)c3cc(C(F)(F)F)cc(C(F)(F)F)n3)cc2)ccn1` (centres undefined), the IC50 was more than 10000 nM.

Consider `Cc1cc(-c2ccc(NC(=O)[C@@H](C)c3cccc(-c4ccc(N5CCOCC5)cc4)c3)cc2)ccn1`, for which the IC50 stood at 70 nM.

Turning to `Cc1cc(-c2ccc(NC(=O)C(C)c3cccc(-c4ccccc4)c3)cc2)ccn1` (centres undefined), the IC50 is 660 nM.

Take `Cc1cc(C)cc(C(C)C(=O)Nc2ccc(-c3ccnc(C)c3)cc2)c1` (centres undefined): the IC50 was determined as 570 nM.

`Cc1cc(-c2ccc(N(C)C(=O)Cc3cc(C(F)(F)F)cc(C(F)(F)F)c3)cc2)ccn1`: the IC50 is more than 10000 nM.

As for `Cc1cc(-c2ccc(NC(=O)C(C)(C)c3cc(C(F)(F)F)cc(C(F)(F)F)c3)cc2)ccn1`, the IC50 was more than 10000 nM.

As to `COc1cc(NS(=O)(=O)c2cc(Cl)cc(Cl)c2)ccc1-n1cnc(C)c1`, the IC50 is 1060 nM.

For the compound `Cc1cc(-c2ccc(NC(=O)C(C)c3cccc(-c4ccc(C(=O)N(C)C)cc4)c3)cc2)ccn1` (centres undefined), the IC50 worked out at 260 nM.

In the case of `Cc1cc(-c2ccc(NC(=O)C(C)c3ccccc3)cc2)ccn1` (centres undefined), the IC50 was 6000 nM.

With `CCCC(C(=O)Nc1ccc(-c2ccnc(C)c2)cc1)c1cccc(C)c1` (centres undefined), the IC50 is 540 nM.

Consider `COc1cc(C(=O)NCCC(c2ccccc2)c2ccccc2)ccc1-n1cnc(C)c1`, for which the IC50 came to 320 nM.

As to `Cc1cc(-c2ccc(NC(=O)C(C)c3cccc(-c4ccc(C(=O)O)cc4)c3)cc2)ccn1` (centres undefined), the IC50 was more than 10000 nM.

Regarding `Cc1cc(-c2ccc(NC(=O)C(C)c3cccc(-c4ccc(N(C)C)cc4)c3)cc2)ccn1` (centres undefined), the IC50 turned out to be 120 nM.

For the compound `Cc1cc(-c2ccc(NC(=O)C(C)c3cc(C#N)cc(C(F)(F)F)c3)cc2)ccn1` (centres undefined), the IC50 came out at 7000 nM.

For `Cc1cc(-c2ccc(NC(=O)C(C)c3cccc(-c4ccccn4)c3)cc2)ccn1` (centres undefined), the IC50 is more than 10000 nM.

As to `Cc1cc(-c2ccc(NC(=O)C(C)c3cccc(-c4ccncc4)c3)cc2)ccn1` (centres undefined), the IC50 came out at 1200 nM.

For `COc1cc(NS(=O)(=O)c2cc(C(F)(F)F)cc(C(F)(F)F)c2)ccc1-c1ccnc(C)c1`, the IC50 was determined as 530 nM.

Consider `Cc1cc(-c2ccc(NC(=O)C(C)c3cccc(-c4ccc(C#N)cc4)c3)cc2)ccn1` (centres undefined), for which the IC50 was 250 nM.

Take `Cc1cc(-c2ccc(NC(=O)C(C)c3cccc(-c4ccccc4C#N)c3)cc2)ccn1` (centres undefined): the IC50 came to 570 nM.

Take `Cc1cc(-c2ccc(NC(=O)C(C)c3cccc(N4CCOCC4)c3)cc2)ccn1` (centres undefined): the IC50 worked out at 4800 nM.

In the case of `Cc1cccc(C(CC(C)C)C(=O)Nc2ccc(-c3ccnc(C)c3)cc2)c1` (single isomer, unassigned; isomer 2), the IC50 turned out to be 1380 nM.

Regarding `Cc1cccc(C(CC(C)C)C(=O)Nc2ccc(-c3ccnc(C)c3)cc2)c1` (single isomer, unassigned; isomer 1), the IC50 was determined as 180 nM.

Regarding `Cc1cc(-c2ccc(NC(=O)C(C)c3cccc(-c4ccc(N5CCOCC5)cc4)c3)cc2)ccn1` (centres undefined), the 50% inhibitory concentration (IC50) stood at 70 nM.

For the compound `COc1ccc(-c2cccc(C(C)C(=O)Nc3ccc(-c4ccnc(C)c4)cc3)c2)cc1` (centres undefined), the IC50 came to 150 nM.

As for `Cc1cc(-c2ccc(NC(=O)C(C)c3cccc(-c4ccc(N5CCOCC5)nc4)c3)cc2)ccn1` (centres undefined), the IC50 is 150 nM.

With `Cc1cc(-c2ccc(NC(=O)Nc3cc(C(F)(F)F)cc(C(F)(F)F)c3)cc2)ccn1`, the IC50 is 1110 nM.

In the case of `Cc1cc(-c2ccc(NC(=O)C(C)c3cccc(-c4ccc(N(C)C)nc4)c3)cc2)ccn1` (centres undefined), the IC50 amounted to 170 nM.

With `CC(=O)c1ccc(-c2cccc(C(C)C(=O)Nc3ccc(-c4ccnc(C)c4)cc3)c2)cc1` (centres undefined), the IC50 was found to be 140 nM.

In the case of `Cc1cc(-c2ccc(NC(=O)C(CC(C)C)c3cc(C(F)(F)F)cc(C(F)(F)F)c3)cc2)ccn1` (centres undefined), the IC50 was 820 nM.

With `Cc1cc(-c2cccc(NC(=O)Cc3cc(C(F)(F)F)cc(C(F)(F)F)c3)c2)ccn1`, the IC50 was more than 10000 nM.

With `COc1cc(C(=O)NCCc2ccc(Cl)cc2)ccc1-n1cnc(C)c1`, the IC50 turned out to be 420 nM.

As for `Cc1cc(-c2ccc(/C=C3\CCCN([C@@H](C)c4ccc(F)cc4)C3=O)cc2)ccn1`, the IC50 amounted to 1530 nM.

Regarding `Cc1cc(-c2ccc(NC(=O)C(C)c3cccc(-c4ccc(NC(C)C)nc4)c3)cc2)ccn1` (centres undefined), the IC50 came out at 180 nM.

Regarding `Cc1cc(-c2ccc(NC(=O)C(O)c3cc(C(F)(F)F)cc(C(F)(F)F)c3)cc2)ccn1` (centres undefined), the IC50 was found to be 2130 nM.

As to `Cc1cccc(C(CC(C)C)C(=O)Nc2ccc(-c3ccnc(C)c3)cc2)c1` (stereo in doubt; 50), the IC50 was 170 nM.

`Cc1cc(-c2ccc(NC(=O)[C@H](C)c3cccc(-c4ccc(N5CCOCC5)cc4)c3)cc2)ccn1`: the IC50 stood at 31 nM.

For `Cc1cccc(CC(=O)Nc2ccc(-c3ccnc(C)c3)cc2)c1`, the IC50 is 2780 nM.

Regarding `COc1cc(NS(=O)(=O)c2ccc(Cl)c(Cl)c2)ccc1-n1cnc(C)c1`, the IC50 is 900 nM.

Regarding `Cc1cccc(C(CCCO)C(=O)Nc2ccc(-c3ccnc(C)c3)cc2)c1` (centres undefined), the IC50 is more than 10000 nM.

For `CCCCC(C(=O)Nc1ccc(-c2ccnc(C)c2)cc1)c1cccc(C)c1` (centres undefined), the IC50 worked out at 490 nM.

As for `O=S(=O)(Nc1ccc(-c2ccco2)cc1)c1cc(Cl)cc(Cl)c1`, the IC50 is more than 10000 nM.

Consider `Cc1cc(-c2ccc(C(=O)NCCc3ccc(Cl)cc3)cc2)ccn1`, for which the IC50 stood at 2120 nM.
